In PMC10709440, “High-throughput ligand profile characterization in novel cell lines expressing seven heterologous insect olfactory receptors for the detection of volatile plant biomarkers” (Scientific Reports, 2023):
Read-outs that look alike come from different tables or passages of the source.

Columns and labels:
Drosophila OR85b = target: T1, Drosophila OR85b (Drosophila melanogaster, UniProt Q9VHQ7); assay: Calcium ion fluorescence (GCaMP6) assay, OR85b stable HEK293 cell line; format: cell-based; settings: for Average response: VUAA1-normalized response, mean of biological replicates
T1 construct: expressed in transfected cells
T1 sequence (Q9VHQ7 1-390): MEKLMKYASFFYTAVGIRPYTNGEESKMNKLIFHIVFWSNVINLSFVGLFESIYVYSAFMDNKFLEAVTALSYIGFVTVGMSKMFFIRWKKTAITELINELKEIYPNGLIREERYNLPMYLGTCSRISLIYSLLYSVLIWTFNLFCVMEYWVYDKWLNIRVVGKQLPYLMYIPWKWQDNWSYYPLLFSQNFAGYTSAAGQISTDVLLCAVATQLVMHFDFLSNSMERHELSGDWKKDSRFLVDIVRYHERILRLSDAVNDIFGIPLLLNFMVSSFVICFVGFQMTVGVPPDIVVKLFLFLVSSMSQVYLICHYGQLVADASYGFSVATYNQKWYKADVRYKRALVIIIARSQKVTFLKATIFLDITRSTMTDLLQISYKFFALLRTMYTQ
T1 sequence (Q9VNB5 1-486 partner): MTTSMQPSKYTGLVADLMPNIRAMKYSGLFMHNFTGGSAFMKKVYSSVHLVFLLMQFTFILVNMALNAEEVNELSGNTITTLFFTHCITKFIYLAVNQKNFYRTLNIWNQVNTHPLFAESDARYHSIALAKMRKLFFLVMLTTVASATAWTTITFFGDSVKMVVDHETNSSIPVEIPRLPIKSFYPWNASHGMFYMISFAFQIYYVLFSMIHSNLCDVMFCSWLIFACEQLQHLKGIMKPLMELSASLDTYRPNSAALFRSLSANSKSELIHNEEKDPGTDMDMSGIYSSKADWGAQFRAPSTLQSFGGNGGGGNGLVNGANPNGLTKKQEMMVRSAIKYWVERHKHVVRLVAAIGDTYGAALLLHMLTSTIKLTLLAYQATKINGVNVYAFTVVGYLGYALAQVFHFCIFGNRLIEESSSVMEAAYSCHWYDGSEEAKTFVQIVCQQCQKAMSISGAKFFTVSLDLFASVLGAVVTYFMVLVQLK
Description: (§1) These VUAA1 normalized ∆F values were used to compare the different receptors and ligands.
(§2) The concentration-dependent effect of the reference ligands on their cognate cell lines was examined in more detail. Twelve different ligand concentrations were measured on each cell line in an overall 0.01 μM to 100 μM concentration range with 5 repetitions with three technical replicates each time.
(§3) Twelve thousand to 18,000 cells were plated into each well of a black wall, transparent bottom 384-well microplate (Greiner) 48 h or 72 h before the measurements and were simultaneously treated with 1 μg/mL doxycycline. […] The plate has 24 columns, thus we could record responses in up to eight different cell lines in each plate. On the day of the experiment, the growth medium was replaced with 20 µL assay buffer/well (140 mM NaCl, 5 mM KCl, 2 mM CaCl2, 1 mM MgCl2, 5 mM HEPES-Na, 20 mM glucose, pH 7.3, 340 mOsm). […] Baseline fluorescence (F0) was recorded for 5 s, after which 7 µL VOC buffer (140 mM NaCl, 5 mM KCl, 2 mM CaCl2, 1 mM MgCl2, 5 mM HEPES-Na, 31 mM glucose, 0.1% DMSO, pH 7.3, 340 mOsm) was injected into each well in one row and the fluorescence response was recorded for an additional 30 s, at a rate of one read/sec. VOC solutions (VOC buffer with 4× concentration of the final measured VOC concentration, 9 µL/well was injected) were measured on the same wells in a second round with the same protocol. Each individual concentration of a specific VOC sample was recorded in three wells for the same cell line on the same microplate. The raw data were exported in xls file format, F0 and FMAX values, and the fluorescence intensity changes (∆F) were calculated in Excel (Microsoft) (Supplementary file Data summary.xlsx) using the following equation: ΔF=FMAX-F0/F0 (see also Fig. 1C). On each plate, we recorded the response of each cell line to 50 µM VUAA1. The average of these ∆F values of each cell line were used to calculate the VUAA1-normalized values for the rest of the plate, by dividing VOC response ∆F values by the average VUAA1 response ∆F value of the corresponding OR cell line. Each VOC-OR combination was measured three times as technical replicates. […] The average of these replicates were used as one ∆F and VUAA1-normalized ∆F in the following analysis.
(§4) In the next rows we tested the reference VOCs (or other VOCs known to activate the corresponding cell lines), in order to test if all cell lines are responsive. The remaining rows were used to test VOCs with unknown effect.
(§5) The recorded FMAX, F0, ∆F, VUAA1-normalized ∆F values, as well as the OR name, the name of the tested sample, and the final concentration for each well were copied into supplementary file Data summary.xlsx, that was used to summarize all the plates recorded. Here, the averages of the measurements were calculated for each receptor-VOC-concentration combination.

Drosophila OR98a = target: T2, Drosophila OR98a (Drosophila melanogaster, UniProt Q9VAZ3); assay: Calcium ion fluorescence (GCaMP6) assay, OR98a stable HEK293 cell line; format: cell-based; settings: for Average response: average of biological replicates, fraction of VUAA1 response; for OR98a Average response (VUAA1-normalized): 50 μM VUAA1 = 1
T2 construct: expressed in transfected cells
T2 sequence (Q9VAZ3 1-397): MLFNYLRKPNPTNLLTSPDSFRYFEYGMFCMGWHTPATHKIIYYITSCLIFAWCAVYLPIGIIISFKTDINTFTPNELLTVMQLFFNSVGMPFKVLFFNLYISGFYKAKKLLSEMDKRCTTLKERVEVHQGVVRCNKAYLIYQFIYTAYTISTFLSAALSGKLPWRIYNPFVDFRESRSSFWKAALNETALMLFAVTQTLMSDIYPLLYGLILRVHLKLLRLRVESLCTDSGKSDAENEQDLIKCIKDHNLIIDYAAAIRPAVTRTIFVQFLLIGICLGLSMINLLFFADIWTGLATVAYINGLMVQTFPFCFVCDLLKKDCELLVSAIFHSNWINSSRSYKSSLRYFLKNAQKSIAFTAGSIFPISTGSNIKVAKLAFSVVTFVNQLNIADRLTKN
T2 sequence (Q9VNB5 1-486 partner): T1 sequence (Q9VNB5 1-486 partner)
Description: as §1, §2, §3, §4, §5

[1] = concentration 1, normalized fluorescence change, values below 0.05 threshold given as 0
[2] = concentration 10, normalized fluorescence change, values below 0.05 threshold given as 0
[3] = concentration 100, normalized fluorescence change, values below 0.05 threshold given as 0
[4] = HEK293, read-out: OR85b response (VUAA1-normalized response)
[5] = ligand concentration 1 (unit not given), threshold 0.05, below shown as 0
[6] = ligand concentration 10 (unit not given), threshold 0.05, below shown as 0
[7] = ligand concentration 100 (unit not given), threshold 0.05, below shown as 0
[8] = HEK293, read-out: Average response
[9] = HEK293, read-out: OR98a Average response (VUAA1-normalized)
[10] = HEK293, read-out: OR98a response (VUAA1-normalized response)
[11] = ligand concentration 1 (unit not given), 0.05 threshold, values below shown as 0
[12] = ligand concentration 10 (unit not given), 0.05 threshold, values below shown as 0
[13] = ligand concentration 100 (unit not given), 0.05 threshold, values below shown as 0
[14] = HEK293, read-out: OR85b Average response (VUAA1-normalized)

| SMILES | Average response (Drosophila OR85b; OR85b cell line, cc. 1 µM) | Average response (Drosophila OR85b; OR85b cell line, cc. 10 µM) | Average response (Drosophila OR85b; OR85b cell line, cc. 100 µM) | Average response (Drosophila OR98a; cc. 1 µM, OR98a cell line) | Average response (Drosophila OR98a; cc. 10 µM, OR98a cell line) | activation at 1 µM (Drosophila OR85b; [4]) [%] | activation at 10 µM (Drosophila OR85b; [4]) [%] | activation at 100 µM (Drosophila OR85b; [4]) [%] | DF norm AVERAGE OR85b (Drosophila OR85b; [5]) | DF norm AVERAGE OR85b (Drosophila OR85b; [6]) | DF norm AVERAGE OR85b (Drosophila OR85b; [7]) | activation at 1 µM (Drosophila OR98a; [8]) [%] | activation at 10 µM (Drosophila OR98a; [8]) [%] | activation at 100 µM (Drosophila OR98a; [8]) [%] | activation at 1 µM (Drosophila OR98a; [10]) [%] | activation at 10 µM (Drosophila OR98a; [10]) [%] | activation at 100 µM (Drosophila OR98a; [10]) [%] | DF norm AVERAGE OR98a (Drosophila OR98a; [5]) | DF norm AVERAGE OR98a (Drosophila OR98a; [6]) | DF norm AVERAGE OR98a (Drosophila OR98a; [7]) | other results |
| --- | --- | --- | --- | --- | --- | --- | --- | --- | --- | --- | --- | --- | --- | --- | --- | --- | --- | --- | --- | --- | --- |
| C=C(C)C1CCC2(C)OC2C1 (single isomer, unassigned; (+)) [(+)-limonene oxide] | 0.00 | 0.00 | 0.00 | 0.00 | 0.00 |  |  |  |  |  |  |  |  |  |  |  |  |  |  |  | OR85b response (VUAA1-normalized response) (Drosophila OR85b; VOC concentration 1 μM): 0.00; OR85b response (VUAA1-normalized response) (Drosophila OR85b; VOC concentration 10 μM): 0.00; OR85b response (VUAA1-normalized response) (Drosophila OR85b; VOC concentration 100 μM): 0.00; DF norm AVERAGE OR85b (Drosophila OR85b; [1]): 0; DF norm AVERAGE OR85b (Drosophila OR85b; [2]): 0; DF norm AVERAGE OR85b (Drosophila OR85b; [3]): 0; OR98a response (VUAA1-normalized response) (Drosophila OR98a; VOC concentration 1 μM): 0.00; OR98a response (VUAA1-normalized response) (Drosophila OR98a; VOC concentration 10 μM): 0.00; OR98a response (VUAA1-normalized response) (Drosophila OR98a; VOC concentration 100 μM): 0.00; Average response (Drosophila OR98a; cc. 100 µM, OR98a cell line): 0.00; DF norm AVERAGE OR98a (Drosophila OR98a; [1]): 0; DF norm AVERAGE OR98a (Drosophila OR98a; [2]): 0; DF norm AVERAGE OR98a (Drosophila OR98a; [3]): 0 |
| CCOC(=O)c1ccccc1 [ethyl benzoate] | 0.0211 | 0.0371 | 0.0138 |  |  | 0 | 0 | 0 | 0 | 0 | 0 | 3 | 0 | 20 | 0 | 0 | 20 | 0 | 0 | 0.2048 | activation at 1 µM (Drosophila OR98a; [9]): 3%; activation at 10 µM (Drosophila OR98a; [9]): 0%; activation at 100 µM (Drosophila OR98a; [9]): 20% |
| CCCCCC(=O)OCC [ethyl hexanoate] | 0.00 | 0.05 | 0.0232 |  |  | 0 | 0 | 0 | 0 | 0 | 0 | 5 | 12 | 3.29 | 0 | 12 | 0 | 0 | 0.1164 | 0 |  |
| CC/C=C\CCO [Z3-hexenol] | 0.0533 | 0.0426 | 0.00 | 0.00 | 0.17 |  |  |  |  |  |  |  |  |  |  |  |  |  |  |  | DF norm AVERAGE OR85b (Drosophila OR85b; [11]): 0.05333; DF norm AVERAGE OR85b (Drosophila OR85b; [12]): 0; DF norm AVERAGE OR85b (Drosophila OR85b; [13]): 0; OR98a Average response (VUAA1-normalized) (Drosophila OR98a; 1 μM VOC): 0.00; OR98a Average response (VUAA1-normalized) (Drosophila OR98a; 10 μM VOC): 0.17; OR98a Average response (VUAA1-normalized) (Drosophila OR98a; 100 μM VOC): 0.11; Average response (Drosophila OR98a; cc. 100 µM, OR98a cell line): 0.11; DF norm AVERAGE OR98a (Drosophila OR98a; [11]): 0; DF norm AVERAGE OR98a (Drosophila OR98a; [12]): 0.167; DF norm AVERAGE OR98a (Drosophila OR98a; [13]): 0.1147 |
| CCCCCOC(C)=O [pentyl acetate] | 0.0185 | 0.04 | 0.14 |  |  |  |  |  | 0 | 0 | 0.1368 | 1.61 | 4 | 14 |  |  |  | 0 | 0 | 0.136 | activation at 1 µM (Drosophila OR85b; [14]): 2%; activation at 10 µM (Drosophila OR85b; [14]): 4%; activation at 100 µM (Drosophila OR85b; [14]): 14%; OR85b response (VUAA1-normalized) at 1 μM (Drosophila OR85b; OR85b cell line, VOC concentration 1 μM): 0.00; OR85b response (VUAA1-normalized) at 10 μM (Drosophila OR85b; OR85b cell line, VOC concentration 10 μM): 0.00; OR85b response (VUAA1-normalized) at 100 μM (Drosophila OR85b; OR85b cell line, VOC concentration 100 μM): 0.14; activation at 1 µM (Drosophila OR98a; [9]): 2%; activation at 10 µM (Drosophila OR98a; [9]): 4%; activation at 100 µM (Drosophila OR98a; [9]): 14%; OR98a response (VUAA1-normalized) at 1 μM (Drosophila OR98a; OR98a cell line, VOC concentration 1 μM): 0.00; OR98a response (VUAA1-normalized) at 10 μM (Drosophila OR98a; OR98a cell line, VOC concentration 10 μM): 0.00; OR98a response (VUAA1-normalized) at 100 μM (Drosophila OR98a; OR98a cell line, VOC concentration 100 μM): 0.14 |
| CCCCOC(C)=O [butyl acetate] | 0.00 | 0.00 | 0.00 |  |  | 0 | 0 | 0 | 0 | 0 | 0 | 3.31 | 0 | 4.29 | 0 | 0 | 0 | 0 | 0 | 0 |  |
